The values below come from article PMC6017698 (Molecules : A Journal of Synthetic Chemistry and Natural …, 2018).

As usually defined, the Papp is the rate of passage across a membrane or cell layer, normalised by area and donor concentration. Low readings indicate poor permeation, high ones ready permeation. For orientation: IC50 means the concentration needed to halve the response being measured.

Molecules are shown by their SMILES. Like-named read-outs stand apart in the source and are kept apart here.

For data set [1] the following is noted: for PAMPA-BBB prediction of BBB permeation: class from Pe value.
Protocol: (§1) The brain permeability (Pe) of the target compounds was determined in vitro using the parallel artificial membrane permeation assay for blood-brain barrier penetration described by Di et al. [41], employing a lipid extract of porcine brain membrane in a mixture of PBS/EtOH 70:30.
Another data set can be described thus: in vitro. To be noted: PAMPA.
The next data set concerns the target T1, human recombinant AChE (Homo sapiens, UniProt P22303).
T1 construct: purchased Sigma, Milan, Italy
Nature of the data set: biochemical. To be noted: for IC50: human recombinant AChE; for selectivity for hAChE over hBChE inhibition: ratio of hBChE and hAChE IC50; for fold more potent hAChE inhibitor than pyridostigmine: relative to pyridostigmine. Format: biochemical.

Another data set concerns the target human serum BChE (Homo sapiens, UniProt P06276). Nature of the data set: biochemical.
For data set [2] the following is noted: commercial drugs used for assay validation; cited from earlier work.
[3] abbreviates: mean ± SEM of at least three experiments, each in duplicate, read-out: hAChE IC50.
The mark [4] stands for this setting: mean ± SEM of at least three experiments, each in duplicate, read-out: hBChE IC50.

human serum BChE, sequence (P06276 29-602): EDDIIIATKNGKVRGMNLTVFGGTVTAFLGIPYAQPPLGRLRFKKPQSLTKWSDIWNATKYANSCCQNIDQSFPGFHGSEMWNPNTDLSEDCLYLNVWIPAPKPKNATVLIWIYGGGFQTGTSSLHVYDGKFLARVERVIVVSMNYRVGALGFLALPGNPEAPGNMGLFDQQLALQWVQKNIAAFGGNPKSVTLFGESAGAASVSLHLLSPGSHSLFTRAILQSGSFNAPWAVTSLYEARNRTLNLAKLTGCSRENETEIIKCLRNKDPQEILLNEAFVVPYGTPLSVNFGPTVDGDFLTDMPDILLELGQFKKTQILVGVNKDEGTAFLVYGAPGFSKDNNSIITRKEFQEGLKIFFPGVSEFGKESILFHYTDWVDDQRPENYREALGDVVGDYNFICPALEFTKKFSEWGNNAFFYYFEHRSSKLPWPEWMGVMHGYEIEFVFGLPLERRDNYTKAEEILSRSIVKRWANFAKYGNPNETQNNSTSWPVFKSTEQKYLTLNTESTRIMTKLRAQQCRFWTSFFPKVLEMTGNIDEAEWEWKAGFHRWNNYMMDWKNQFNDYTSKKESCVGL
T1 sequence (P22303 32-614): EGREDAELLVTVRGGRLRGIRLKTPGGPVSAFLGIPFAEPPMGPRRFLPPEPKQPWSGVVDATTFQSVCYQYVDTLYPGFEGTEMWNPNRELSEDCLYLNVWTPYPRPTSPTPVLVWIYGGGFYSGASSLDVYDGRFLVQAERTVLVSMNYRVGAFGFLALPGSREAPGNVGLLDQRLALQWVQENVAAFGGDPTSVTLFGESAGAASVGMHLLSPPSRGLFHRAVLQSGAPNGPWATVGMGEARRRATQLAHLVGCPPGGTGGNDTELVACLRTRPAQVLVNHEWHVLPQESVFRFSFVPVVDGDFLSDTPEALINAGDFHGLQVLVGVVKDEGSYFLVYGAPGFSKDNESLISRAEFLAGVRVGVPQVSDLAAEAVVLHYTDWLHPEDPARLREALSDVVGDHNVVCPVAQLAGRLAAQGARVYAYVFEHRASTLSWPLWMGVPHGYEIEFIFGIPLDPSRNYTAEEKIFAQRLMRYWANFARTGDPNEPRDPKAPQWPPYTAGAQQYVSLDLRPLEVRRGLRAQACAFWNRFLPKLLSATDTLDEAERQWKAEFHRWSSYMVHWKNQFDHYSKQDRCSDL
Protocol for in vitro: as §1

Turning to `Nc1c2c(nc3cc(Cl)ccc13)CCCC2` [6-chlorotacrine, reference compound], the “PAMPA-BBB prediction of BBB permeation” value in data set [1] was “CNS+ (High BBB permeation (CNS+) is expected for compounds with Pe > 5.19)”. The compound also showed a Papp in the data set “in vitro” (pig) of 19.8 ± 0.4 ×10⁻⁶ cm/s.

Turning to `C[n+]1c2c(c(N)c3ccccc31)CCCC2.[I-]` [Compound 4, 9-Amino-1,2,3,4-tetrahydro-10-methylacridin-10-ium iodide], the IC50 is 12000 ± 1000 nM at human recombinant AChE (setting [3]) and 2850 ± 190 nM at human serum BChE (setting [4]). Besides, the “PAMPA-BBB prediction of BBB permeation” value in data set [1] is on record as “CNS− (low BBB permeation (CNS−) is expected for compounds with Pe < 2.07)”. In “in vitro”, this compound displayed a Papp of 1.7 ± 1.5 ×10⁻⁶ cm/s.

Consider `C[n+]1c2c(c(N)c3ccc(Cl)cc31)CCCC2.[I-]` [Compound 5, 9-Amino-6-chloro-1,2,3,4-tetrahydro-10-methylacridin-10-ium iodide], for which the IC50 came out at 2450 ± 280 nM on human recombinant AChE (setting [3]) and 22300 ± 1500 nM on human serum BChE (setting [4]). The “PAMPA-BBB prediction of BBB permeation” value in data set [1] is listed as “CNS− (low BBB permeation (CNS−) is expected for compounds with Pe < 2.07)”. The compound further returned a Papp in the data set “in vitro” of 1.2 ± 0.8 ×10⁻⁶ cm/s.

Take `CC1=CC2Cc3c(c(N)c4ccc(Cl)cc4[n+]3C)C(C1)C2.[I-]` (centres unmarked) [Compound 6, 12-Amino-3-chloro-6,7,10,11-tetrahydro-5,9-dimethyl-7,11-methanocycloocta[b]quinolin-5-ium iodide]: the “PAMPA-BBB Pe” value in data set [1] (PBS/EtOH 70:30, mean of three independent experiments ± SD) is 10.90 10^−6 cm/s. Also, in data set [1], the “PAMPA-BBB prediction of BBB permeation” value is listed as “CNS+ (High BBB permeation (CNS+) is expected for compounds with Pe > 5.19)”. In addition, the Papp in the data set “in vitro” was 10.9 ± 1.5 ×10⁻⁶ cm/s.

For `OCCc1cn(CCNc2c3c(nc4ccccc24)CCCC3)nn1` [Compound 9, 2-{1-[2-(1,2,3,4-Tetrahydroacridin-9-ylamino)ethyl]-1H-1,2,3-triazol-4-yl}ethanol], the results for the IC50 on human recombinant AChE (setting [3]) and at human serum BChE (setting [4]) were 1730 ± 120 nM and 170 ± 10 nM, respectively. Moreover, the “PAMPA-BBB prediction of BBB permeation” value in data set [1] is “CNS− (low BBB permeation (CNS−) is expected for compounds with Pe < 2.07)”. Further, the Papp in “in vitro” (pig) worked out at 0.03 ± 0.001 ×10⁻⁶ cm/s.

As to `OCCc1cn(CCNc2c3c(nc4cc(Cl)ccc24)CCCC3)nn1` [Compound 10, 2-{1-[2-(6-Chloro-1,2,3,4-tetrahydroacridin-9-ylamino)ethyl]-1H-1,2,3-triazol-4-yl}ethanol], the IC50 on human recombinant AChE (setting [3]) came to 200 ± 10 nM. In addition, at human recombinant AChE, the “selectivity for hAChE over hBChE inhibition” value was 16 and the “fold more potent hAChE inhibitor than pyridostigmine” value was found to be 7 fold. At human serum BChE (setting [4]), the IC50 worked out at 3250 ± 170 nM. The “PAMPA-BBB prediction of BBB permeation” value in data set [1] was “CNS− (low BBB permeation (CNS−) is expected for compounds with Pe < 2.07)”. This compound also displayed a Papp in the data set “in vitro” (pig) of 0.02 ± 0.001 ×10⁻⁶ cm/s.

In the case of `COc1cc(CNC(=O)Cc2cn(CCNc3c4c(nc5ccccc35)CCCC4)nn2)ccc1O` [Compound 15, N-[4-(hydroxy)-3-methoxybenzyl]-2-{1-[2-(1,2,3,4-tetrahydroacridin-9-ylamino)ethyl]-1H-1,2,3-triazol-4-yl}acetamide], the IC50 at human recombinant AChE (setting [3]) is 250 ± 10 nM; on human serum BChE (setting [4]), 50 nM; on human serum BChE (values given in nM (table footnotes), read-out: IC50 hBChE), 54.8 nM. Also, the “PAMPA-BBB prediction of BBB permeation” value in data set [1] is listed as “CNS− (low BBB permeation (CNS−) is expected for compounds with Pe < 2.07)”. In “in vitro” (pig), this compound yielded a Papp of 0.03 ± 0.001 ×10⁻⁶ cm/s.

`COc1cc(CNC(=O)Cc2cn(CCNc3c4c(nc5cc(Cl)ccc35)CCCC4)nn2)ccc1O` [Compound 16, 2-{1-[2-(6-Chloro-1,2,3,4-tetrahydroacridin-9-ylamino)ethyl]-1H-1,2,3-triazol-4-yl}-N-[4-(hydroxy)-3-methoxybenzyl]acetamide]: the IC50 amounted to 10 nM at human recombinant AChE (setting [3]); 7.18 nM at human recombinant AChE (values given in nM (table footnotes, text), read-out: IC50 hAChE); 290 ± 10 nM on human serum BChE (setting [4]). In addition, at human recombinant AChE, the “selectivity for hAChE over hBChE inhibition” value is listed as 40. In addition, at human recombinant AChE, the “fold more potent hAChE inhibitor than pyridostigmine” value was 192 fold. In data set [1], the “PAMPA-BBB prediction of BBB permeation” value was “CNS±”. Moreover, the Papp in “in vitro” (pig) amounted to 2.97 ± 0.61 ×10⁻⁶ cm/s.

On to `CCn1cc(C(=O)O)c(=O)c2cc(F)c(N3CCNCC3)cc21` [Norfloxazin, reference compound], for which the “Experimental Pe” value in data set [1] (commercial drugs used for assay validation, mean ± SD of three independent experiments) is recorded as 0.9 ± 0.1 10^−6 cm s^−1.

Take `CN1C(C(=O)Nc2ccccn2)=C(O)c2ccccc2S1(=O)=O` [Piroxicam]: the “Reported Pe” value in data set [2] is given as 2.5 10^−6 cm s^−1.

Turning to `CN(C)CCCN1c2ccccc2Sc2ccccc21` [Promazine], the “Reported Pe” value in data set [2] was 8.8 10^−6 cm s^−1.
